{"source": "paper PMC12428554", "about": "“Anti-HIV and Antimicrobial Activity of 7-Hydrazino-8-hydroxyquinoline-Based Aromatic Hydrazones” (International Journal of Molecular Sciences, 2025)", "experiment": "Water solubility and stability of hydrazones and alginate microgels", "format": "physicochemical", "settings": "preliminary studies", "description": "The expected mass loading of microgels was 33% (5.0 mg of alginate + 2.5 mg of a sample). A solution of sodium alginate was prepared at a concentration of 3.0 mg/mL. 1.700 mL of sodium alginate solution and 3.283 mL of distilled water were added to the beaker and an equimolar copper sulfate solution (17.0 μL) was added dropwise and stirred for 30 min. Then, concentrated hydrochloric acid was dissolved in 250 μL of the polymer solution for 20 min while heating to 50 °C until the solid residue was completely dissolved. The resulting solution of I was added dropwise to the Cu^2+–alginate microgel solution and stirred for 24 h; then, the acid was neutralized with a concentrated NaOH aq. solution. The resulting solutions were purified using flow dialysis. Microgels with substances were lyophilized until a fully dry pinkish powder was obtained.", "data": [{"smiles": "Oc1c(N/N=C/c2ccccc2)ccc2cccnc12", "note": "[Compound I, 7-(2-Benzylidenohydrazinyl)-8-hydroxyquinoline]", "values": [{"measurement": "solubility", "result": "~2300", "unit": "µg/mL"}]}]}
